Experimental data reported in patent publication US5750550A, “2-(pyrazol-5-yl-oxymethyl)-1,2-benzisothiazol-3 (2H)-One 1, 1-dioxides and compositions and method of use thereof” (Sanofi, priority 1995, dated 1998).

Biological target: T1, human leukocyte elastase (Homo sapiens, UniProt P08246)
T1 sequence (P08246 30-267): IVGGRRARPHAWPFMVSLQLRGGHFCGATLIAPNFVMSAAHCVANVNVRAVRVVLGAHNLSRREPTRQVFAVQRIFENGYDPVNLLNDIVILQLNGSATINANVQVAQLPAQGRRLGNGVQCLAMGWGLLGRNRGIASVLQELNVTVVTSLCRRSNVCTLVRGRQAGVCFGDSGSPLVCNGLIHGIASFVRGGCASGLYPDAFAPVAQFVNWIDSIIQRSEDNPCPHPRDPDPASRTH
Assay: human leukocyte elastase (HLE) inhibitory activity, substrate MeOSuc-Ala-Ala-Pro-Val-pNA
Type: biochemical
Conditions: pH 7.8, 25° C., steady-state velocities
Protocol: The test compound (inhibitor) is dissolved in DMSO in a vial to produce an inhibitor stock solution which has a concentration in the range of 200-1000 μM. The inhibitor stock solution is diluted (1:4, 1:16 and 1:64) into assay vials (vials 1, 2 and 3 respectively) containing 2.4 mL of buffer solution (50 mM N-[2-hydroxyethyl] piperazine-N'-[2-ethanesulfonic acid]/NaOH, 500 mM NaCl, pH 7.8 at 25° C.) and DMSO is added so that the total volume in each vial is 3.2 mL. 70 μL, 50 μL, 35 μL and 25 μL of inhibitor from assay vial 1 is placed into the first four wells of a 96-well microtiter plate and each well is made up to 90 μL total volume with the addition of a 25% DMSO/buffer solution. The inhibitor from assay vials 2 and 3 is processed in a similar manner and placed in wells 5-12 respectively to afford a total of 12 different inhibitor concentrations. Four wells (wells 13-16) containing 90 μL of the 25% DMSO/buffer solution but no inhibitor are also run simultaneously with the inhibited wells as a control. 150 μL of substrate solution (prepared by the addition of 500 μL of the human leukocyte elastase (HLE) substrate MeOSuc-Ala-Ala-Pro-Val-pNA (18.7 mM in DMSO) to 19.5 mL of buffer solution) is then added simultaneously into each of the 16 wells and the solution in each well was thoroughly mixed.
The 96-well microtiter plate is placed into a Microplate Reader #89815A spectrophotometer and 110 μL of the enzyme solution (prepared as follows: a mixture of 20 mL of buffer solution and 20 mg of bovine serum albumen is gently vortexed in a scintillation vial and 5 μL HLE stock solution (1 mg/mL dissolved in deionized water) is added) is added simultaneously to each of the 16 wells. Each of the solutions in the wells is throughly mixed and then the time-dependent absorbance data is collected at an absorbance of 410 nm until the assay is complete. It should be noted that although this assay method can be done manually, it is preferred to perform the assay robotically using a Hewlett Packard MicroAssay System Robot. the absorbance versus time data thus obtained affords curves the final slope of which is equal to the final steady-statevelocities (VF). Using the program ENZFITTER (Elsevier software), the progress curves for the four control assays ([I]=0 are fit by linear regression to yield the enzyme reaction velocity values in the absences of inhibitor (Vo) which are averaged to produce a single fixed value. The inhibition constant Ki (nM) is then obtained from a plot of [formula] which affords a linear plot wherein: [formula] and [S] is the concentration of the substrate and Km is the Michaelis constant.
Table I summarizes the results obtained from the testing of compounds of the invention for human leukocyte elastase inhibitory activity.

Structure (SMILES) | Ki [nM]
CC(C)c1cc(OCCCCCC(=O)O)cc2c1C(=O)N(COc1cc(C(F)(F)F)nn1-c1ccccc1)S2(=O)=O [37 (f), 4-isopropyl-6-[5-(carboxy)-enthyloxy]-2-(1-phenyl-3-trifluoromethylpyrazol-5-yl-oxymethyl)-1,2-benzisothiazol-3(2H)-one 1,1-dioxide] | 0.081
CC(C)c1cc(OCCC(C)(C)C(=O)O)cc2c1C(=O)N(COc1cc(C(F)(F)F)nn1-c1ccccc1)S2(=O)=O [38 (d)] | 0.18
CC(C)c1cc(O)cc2c1C(=O)N(COc1cc(C(F)(F)F)nn1-c1ccc(Cl)cc1)S2(=O)=O [39 (a), 4-isopropyl-6-hydroxy-2-[1-(4-chlorophenyl)-3-trifluoromethylpyrazol-5-yl-oxymethyl]-1,2-benzisothiazol-3(2H)-one 1,1-dioxide] | 1.9
CC(C)c1cc(OCCCC(=O)O)cc2c1C(=O)N(COc1cc(C(F)(F)F)nn1-c1ccc(Cl)cc1)S2(=O)=O [39 (c), 4-isopropyl-6-[3-(carboxy)propoxy]-2-[1-(4-chlorophenyl)-3-trifluoromethylpyrazol-5-yl-oxymethyl]-1,2-benzisothiazol-3(2H)-one 1,1-dioxide] | 0.074
COc1ccc(COC(=O)c2ccc(COc3cc(C(C)C)c4c(c3)S(=O)(=O)N(COc3cc(C(F)(F)F)nn3-c3ccccc3)C4=O)o2)cc1 [42 (b)] | 0.081
COc1cc(C(C)C)c2c(c1)S(=O)(=O)N(COc1cc(C(F)(F)F)nn1-c1ncccc1C)C2=O [45 (b), 4-isopropyl-6-methoxy-2-[1-(3-methyl-2-pyridyl)-3-trifluoromethylpyrazol-5-yl-oxymethyl]-1,2-benzisothiazol-3(2H)-one 1,1-dioxide] | 0.061
COc1cc(C(C)C)c2c(c1)S(=O)(=O)N(COc1cc(C#N)nn1-c1ccc(Cl)cc1Cl)C2=O [50 (b), 4-isopropyl-6-methoxy-2-[1-(2,4-dichlorophenyl)-3-cyanopyrazol-5-yl-oxymethyl]-1,2-benzisothiazol-3(2H)-one 1,1-dioxide] | 0.058
COc1cc(C(C)C)c2c(c1)S(=O)(=O)N(COc1cc(C(F)(F)F)nn1-c1cccc(Cl)c1)C2=O [51 (b), 4-isopropyl-6-methoxy-2-[1-(3-chlorophenyl)-3-trifluoromethylpyrazol-5-yl-oxymethyl]-1,2-benzisothiazol-3(2H)-one 1,1-dioxide] | 0.13
COc1cc(C(C)C)c2c(c1)S(=O)(=O)N(COc1cc(Br)nn1-c1ccccc1)C2=O [52 (b), 4-isopropyl-6-methoxy-2-[1-phenyl-3-bromopyrazol-5-yl-oxymethyl]-1,2-benzisothiazol-3(2H)-one 1,1-dioxide] | 0.066
COc1cc(C(C)C)c2c(c1)S(=O)(=O)N(COc1cc(C)nn1C)C2=O [Example 1, 4-isopropyl-6-methoxy-2-(1,3-dimethylpyrazol-5-yl-oxymethyl)-1,2-benzisothiazol-3(2H)-one 1,1-dioxide] | 0.73
COc1cc(C(C)C)c2c(c1)S(=O)(=O)N(COc1cc(C(F)(F)F)nn1-c1ccccc1)C2=O [Example 3, 4-isopropyl-6-methoxy-2-(1-phenyl-3-trifluoromethylpyrazol-5-yl-oxymethyl)-1,2-benzisothiazol-3(2H)-one 1,1-dioxide] | 0.068
COc1cc(C(C)C)c2c(c1)S(=O)(=O)N(COc1cc(C)nn1-c1ccc([N+](=O)[O-])cc1)C2=O [Example 7, 4-isopropyl-6-methoxy-2-[1-(p-nitrophenyl)-3-methylpyrazol-5-yl-oxymethyl]-1,2-benzisothiazol-3(2H)-one 1,1-dioxide] | 0.076
CC(C)c1cc(O)cc2c1C(=O)N(COc1cc(C(F)(F)F)nn1-c1ccccc1)S2(=O)=O [Example 9, 4-iso-ropyl-6-hydroxy-2-(1-phenyl-3-trifluoromethylpyrazol-5-yl-oxymethyl)-1,2-benzisothiazol-3(2H)-one 1,1-dioxide] | 0.78
CCOC(=O)c1cc(OCN2C(=O)c3c(C(C)C)cc(OC)cc3S2(=O)=O)n(-c2ccccc2)n1 [Example 12, 4-isopropyl-6-methoxy-2-(1-phenyl-3-ethoxycarbonylpyrazol-5-yl-oxymethyl)-1,2-benzisothiazol-3(2H)-one 1,1-dioxide] | 0.077

Next, values leading:

Ki [nM] | Structure (SMILES)
0.12 | CC(C)c1cc(OCc2ccc(CN(C)C)o2)cc2c1C(=O)N(COc1cc(C(F)(F)F)nn1-c1ccccc1)S2(=O)=O [Example 13]
0.31 | COc1cc(C(C)C)c2c(c1)S(=O)(=O)N(COc1cc(C(=O)O)nn1-c1ccccc1)C2=O [Example 21, 4-isopropyl-6-methoxy-2-[1-phenyl-3-(carboxy)pyrazol-5-yl-oxymethyl]-1,2-benzisothiazol-3(2H)-one 1,1-dioxide]
0.1 | COc1cc(C(C)C)c2c(c1)S(=O)(=O)N(COc1cc(C(F)(F)F)nn1C)C2=O [Example 25, 4-isopropyl-6-methoxy-2-(1-methyl-3-trifluoromethylpyrazol-5-yl-oxymethyl)-1,2-benzisothiazol-3(2H)-one 1,1-dioxide]
0.014 | COc1cc(C(C)C)c2c(c1)S(=O)(=O)N(COc1cc(C#N)nn1-c1ccccc1)C2=O [Example 35, 4-isopropyl-6-methoxy-2-(1-phenyl-3-cyanopyrazol-5-yl-oxymethyl)-1,2-benziso thiazol-3(2H)-one 1,1-dioxide]
0.19 | COc1cc(C(C)C)c2c(c1)S(=O)(=O)N(COc1cc(C#N)nn1-c1ccc(Cl)cc1)C2=O [Example 46, 4-isopropyl-6-methoxy-2-[1-(4-chlorophenyl)-3-cyanopyrazol-5-yl-oxymethyl]-1,2-benzisothiazol-3(2H)-one 1,1-dioxide]
0.5 | CCOc1cc(OCC)c2c(c1)S(=O)(=O)N(COc1cc(C(F)(F)F)nn1-c1ccccc1)C2=O [Example 47, 4,6-diethoxy-2-[1-phenyl-3-trifluoromethylpyrazol-5-yl-oxymethyl]-1,2-benzisothiazol-3(2H)-one 1,1-dioxide]
39 | COc1cc(C(C)C)c2c(c1)S(=O)(=O)N(COc1cc(C(F)(F)F)nn1Cc1ccccc1)C2=O [Example 48, 4-isopropyl-6-methoxy-2-[1-benzyl-3-trifluoromethylpyrazol-5-yl-oxymethyl]-1,2-benzisothiazol-3(2H)-one 1,1-dioxide]
